Data reported in EP1388586A2, “Identification of broadly reactive DR restricted epitopes” (priority 1998, dated 1999).
pIC50: −log10 of the molar value. Read-outs that look alike come from different tables or passages of the source. Ends that are not written are not given here.

Experiments:
[1] = tested on: panel of purified HLA DR molecules; format: binding, human;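 further: competitive inhibition of radiolabeled probe peptide binding to purified HLA DR molecules, with inhibitory potency of unlabeled peptides taken as an approximation of affinity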
DRB1*0405 (DR4w15) = DRB1*0405 (DR4w15) (Homo sapiens, UniProt P01903+P01911, A100R/A169T/D86S/F76Y/I96L/K127E/L162R/M171V/N62H/P40V/Q125Y/R42H/S133A/S149N/S66Y/V115G/V209L/W38E); experiment: Class II peptide-binding assay, DR4w15; settings: for IC50: Table V B) Correct Predictions, read-out: Binding Capacity (IC50% nM) DR4w15; for pIC50: Table V A) Non Predictions, read-out: Binding Capacity DR4w15
Procedure: (§1) Class II peptide-binding assays. […] These assays were chosen as to be representative of the most common DR alleles.
(§2) Radiolabeled peptides were iodinated using the chloramine-T method. […] In appropriate stoichiometric conditions, the IC50 of an unlabeled test peptide to the purified DR is a reasonable approximation of the affinity of interaction (Kd). Peptides were tested in two to four completely independent experiments. […] Final detergent concentration in the incubation mixture was 0.05% Nonidet P-40. Assays were performed at pH 7.0 with the exception of DR3, which was performed at pH 4.5, and DRw53, which was performed at pH 5.0.
(§3) All subsequent inhibition and direct binding assays were the performed using these class II concentrations.
DR4w15. The β4 product DRw53 is co-expressed with DR4w15 and the determination of the specificity of the DR4w1 binding assay is complicated in that the same radiolabeled ligand is used for both the DR4w15 and DRw53 binding assays.

DRB1*0101 (DR1) = target: T1, DRB1*0101 (DR1) (Homo sapiens, UniProt P01903+P01911, A100R/D57E/F55L/F60I/F76Y/I96L/L162R/M171V/P40L/Q125E/R42F/V115G/Y59C); experiment: Class II peptide-binding assay, DR1; settings: for IC50: Table V B) Correct Predictions, read-out: Binding Capacity (IC50% nM) DR1;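 on all read-outs here: competition assay: unlabeled test peptides inhibit binding of a radiolabeled probe peptide to purified DR, with half-maximal inhibition taken as an approximate dissociation constant Kd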
T1 construct: used as sources of human HLA class II molecules; endogenous in cells; host or cells: LG2 (EBV-transformed homozygous B cell line)

DRB1*0701 (DR7) = DRB1*0701 (DR7) (Homo sapiens, UniProt P01903+P01911, A100R/A102G/A103Q/D57E/D86V/E43K/F76Y/K127E/L162R/M171V/P40G/Q125H/Q99D/R33Q/R42Y/R54Q/S133A/S66F/T210M/V115G/Y107V/Y59L/Y89S); experiment: Class II peptide-binding assay, DR7; settings: for IC50: Table V B) Correct Predictions, read-out: Binding Capacity (IC50% nM) DR7;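 on all read-outs here: unlabeled peptides compete with an iodinated probe peptide for binding to affinity-purified HLA-DR at neutral pH, DR amount titered to bind a small tracer fraction, IC50 approximating Kd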
DRB1*1101 (DR5w11) = target: T2, DRB1*1101 (DR5w11) (Homo sapiens, UniProt P01903+P01911, A100R/A169T/A87E/I96F/K41T/L162R/M171V/P40S/Q125H/Q178H/Q39Y/Q99D/R42S/S66Y/T262R/V115G/W38E); experiment: Class II peptide-binding assay, DR5w11;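 further: competition by unlabeled test peptide against iodinated probe peptide binding to affinity-purified HLA-DR, class II amount titrated beforehand, half-maximal inhibitory concentration read as approximate Kd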
T2 construct: used as sources of human HLA class II molecules; endogenous in cells; host or cells: SWEIG (EBV-transformed homozygous B cell line)

DRB5*0101 (DR2w2a) = target: T3, DRB5*0101 (DR2w2a) (Homo sapiens, UniProt P01903+Q30154); experiment: Class II peptide-binding assay, DR2w2a (DR2w2B2);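 further: competitive binding assay: unlabeled peptide inhibiting binding of a radiolabeled probe peptide to purified DR molecules at pH 7.0, IC50 approximating Kd, lower means stronger binding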
T3 construct: used as sources of human HLA class II molecules; endogenous in cells; host or cells: GM3107 (EBV-transformed homozygous B cell line)
Procedure: as §1, §2, §3

DRB1*1501 (DR2w2b) = target: T4, DRB1*1501 (DR2w2b) (Homo sapiens, UniProt P01903+P01911); experiment: Class II peptide-binding assay, DR2w2b (DR2w2B1)
T4 construct: expressed in transfected cells; host or cells: L466.1 transfected fibroblasts
Procedure: as §1
(§4) In appropriate stoichiometric conditions, the IC50 of an unlabeled test peptide to the purified DR is a reasonable approximation of the affinity of interaction (Kd). Peptides were tested in two to four completely independent experiments. […] Final detergent concentration in the incubation mixture was 0.05% Nonidet P-40. Assays were performed at pH 7.0 with the exception of DR3, which was performed at pH 4.5, and DRw53, which was performed at pH 5.0.
as §3

DRB1*0802 (DR8w2) = target: T5, DRB1*0802 (DR8w2) (Homo sapiens, UniProt P01903+P01911, A100R/A103L/A169T/F76Y/H45Y/I96F/K41T/L162R/M171V/P40S/Q125H/Q178H/Q39Y/Q99D/R218S/R42G/S66Y/V115G/W38E); experiment: Class II peptide-binding assay, DR8w2
T5 construct: used as sources of human HLA class II molecules; endogenous in cells; host or cells: OLL (EBV-transformed homozygous B cell line)
Procedure: as §1, §2, §3
DR8w2 and DR8w3. The β1 specificity of the DR8w2 and DR8w3 assays is obvious in that no β3 (and/or B4 and β5) molecule is expressed.

DRB1*1302 (DR6w19) = DRB1*1302 (DR6w19) (Homo sapiens, UniProt P01903+P01911, A100E/A169T/K41T/L162R/M171V/P40S/Q125H/Q178H/Q39Y/Q99D/R42S/S66N/T262R/V115G/W38E/Y61H); format: binding; settings: for pIC50: read-out: In IC50 Format DR6w19 nM, Table VIII, values in parentheses read as lower bounds; for IC50: Table V B) Correct Predictions, read-out: Binding Capacity (IC50% nM) DR6w19
Procedure: The lysates were cleared of debris and nuclei by centrifugation at 10,000 x g for 20 min.
Affinity purification of HLA-DR molecules.
as §1, §2, §3
DR6w19. The DR6w19 assay utilizes as the source of class II molecules the EBV transformed homozygous cell line H0301, which co-expresses DRB30301 (DR52a). While the radiolabeled ligand used in the DR6w19 assay is different than that used for the DR52a assay, the ligand is related (i.e., is a single substitution analog) to a high affinity DR52a binder. As was done in the case of DR4w15, the specificity of the assay was investigated by analyzing the binding capacity of a panel of naturally occurring peptides for DR6w19 and DR52a.

DRB1*0901 (DR9) = target: T6, DRB1*0901 (DR9) (Homo sapiens, UniProt P01903+P01911, A100R/A103E/D57H/D86V/F55Y/F60I/F76Y/I96F/K127E/L162R/M171V/P40D/Q125H/Q99R/R33Q/R42F/S133A/S66N/T210M/V115G/W38K/Y107V/Y59G/Y89S); experiment: Class II peptide-binding assay, DR9; settings: Table V A) Non Predictions; read-out: Binding Capacity DR9
T6 construct: used as sources of human HLA class II molecules; endogenous in cells; host or cells: HTC9074 (EBV-transformed homozygous B cell line); gift of Dr. Paul Harris
Procedure: as §1, §4, §3

DRB1*0401 (DR4w4) = target: T7, DRB1*0401 (DR4w4) (Homo sapiens, UniProt P01903+P01911, A100K/A169T/F76Y/I96L/K127E/L162R/M171V/N62H/P40V/Q125Y/R42H/S133A/S149N/S66Y/V115G/V209L/W38E); experiment: Class II peptide-binding assay, DR4w4;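 further: unlabeled test peptides compete with a radiolabeled probe peptide for binding to affinity-purified HLA-DR, with DR amount titrated to capture a small fraction of label, IC50 approximating Kd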
T7 construct: used as sources of human HLA class II molecules; endogenous in cells; host or cells: PREISS (EBV-transformed homozygous B cell line)

DRB1*1201 (DR5w12) = target: T8, DRB1*1201 (DR5w12) (Homo sapiens, UniProt P01903+P01911, A100R/A169T/D57E/D86V/F55L/H45Y/K41T/L162R/M171V/P40S/Q125H/Q178H/Q39Y/Q99D/R42G/S66L/T262R/V114A/V67L/W38E/Y59H/Y61H/Y89S); experiment: Class II peptide-binding assay, DR5w12
T8 construct: used as sources of human HLA class II molecules; endogenous in cells; host or cells: Herluf (EBV-transformed homozygous B cell line)
Procedure: as §1, §4, §3

DRB4*0101 (DRw53) = target: T9, DRB4*0101 (DRw53) (Homo sapiens, UniProt P01903+P13762, G164S); format: binding; settings: read-out: DRw53 nM (In IC50 Format)
T9 construct: expressed in transfected cells; host or cells: L257.6 transfected fibroblasts
Procedure: as §1, §2, §3

DRB10404 (DR4w14) = target: T10, DRB10404 (DR4w14) (Homo sapiens, UniProt P01903+P01911, A100R/A169T/F76Y/I96L/K127E/L162R/M171V/N62H/P40V/Q125Y/R42H/S133A/S149N/S66Y/V209L/W38E); experiment: Class II peptide-binding assay, DR4w14; settings: read-out: DR4w14 nM (In IC50 Format); purified HLA DR4w14;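 further: unlabeled peptides compete with a radiolabeled probe for binding to affinity-purified HLA-DR, neutral pH, class II amount titrated to bind a small fraction of label, IC50 approximates Kd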
T10 construct: used as sources of human HLA class II molecules; endogenous in cells; host or cells: BIN40 (EBV-transformed homozygous B cell line)

[2] = read-out: In IC50 Format DR7 nM, Table VIII, values in parentheses read as lower bounds
[3] = read-out: In IC50 Format DR5w11 nM, Table VIII, values in parentheses read as lower bounds
[4] = read-out: In IC50 Format DR2w2B2 nM, Table VIII, values in parentheses read as lower bounds
[5] = read-out: In IC50 Format DR1 nM, Table VIII, values in parentheses read as lower bounds
[6] = read-out: In IC50 Format DR2w2B1 nM, Table VIII, values in parentheses read as lower bounds
[7] = read-out: In IC50 Format DR8w2 nM, Table VIII, values in parentheses read as lower bounds
[8] = Table V A) Non Predictions, read-out: Binding Capacity DR5w11
[9] = Table V A) Non Predictions, 12 DR molecules listed
[10] = Table V A) Non Predictions, read-out: Binding Capacity DR1
[11] = Table V A) Non Predictions, read-out: Binding Capacity DR2w2b
[12] = Table V A) Non Predictions, read-out: Binding Capacity DR8w2
[13] = Table V A) Non Predictions, read-out: Binding Capacity DR4w4

DRB1*1302 (DR6w19), sequence (P01903 26-254, other chains not shown): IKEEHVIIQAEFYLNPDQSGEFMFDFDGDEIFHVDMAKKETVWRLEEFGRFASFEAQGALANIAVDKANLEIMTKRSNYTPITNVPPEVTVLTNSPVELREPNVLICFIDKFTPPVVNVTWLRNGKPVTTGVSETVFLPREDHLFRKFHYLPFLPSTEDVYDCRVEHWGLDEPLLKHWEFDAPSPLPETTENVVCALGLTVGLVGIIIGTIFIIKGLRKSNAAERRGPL
T2 sequence (P01903 26-254, other chains not shown): as above

Compound	Total Alleles Bound [1]	IC50 (DRB1*0405 (DR4w15)) [nM]	pIC50 (DRB1*0701 (DR7); [2])	pIC50 (DRB1*1101 (DR5w11); [3])	pIC50 (DRB1*1501 (DR2w2b); [6])	pIC50 (DRB1*0802 (DR8w2); [7])	pIC50 (DRB1*1101 (DR5w11); [8])	Total Alleles Bound [1, 9]	pIC50 (DRB1*0405 (DR4w15))	pIC50 (DRB1*0101 (DR1); [10])	pIC50 (DRB1*0802 (DR8w2); [12])	pIC50 (DRB1*0401 (DR4w4); [13])	other results
RVYQEPQVSPPQRAET [Peptide 1136.59.01a]	3	3140											IC50 (DRB1*0101 (DR1)): 130 nM
CC(C)C[C@H](NC(=O)[C@H](C)NC(=O)[C@H](CCC(N)=O)NC(=O)[C@H](Cc1c[nH]cn1)NC(=O)[C@@H]1CCCN1C(=O)[C@H](CC(N)=O)NC(=O)[C@H](CCCNC(=N)N)NC(=O)[C@H](Cc1ccccc1)NC(=O)[C@H](CC(C)C)NC(=O)[C@H](CCC(N)=O)NC(=O)[C@H](CC(=O)O)NC(=O)[C@@H](N)Cc1c[nH]c2ccccc12)C(=O)N[C@@H](CC(C)C)C(=O)N[C@@H](Cc1c[nH]cn1)C(=O)N[C@H](C(=O)O)[C@@H](C)O [Peptide 39.0354]			< 4.83	< 4.60	5.22	< 4.26							pIC50 (DRB5*0101 (DR2w2a); [4]): < 4.54; pIC50 (DRB1*0101 (DR1); [5]): < 4.30
CC[C@H](C)[C@H](NC(=O)[C@H](CC(C)C)NC(=O)[C@H](C)NC(=O)[C@@H](N)CC(C)C)C(=O)N[C@@H](Cc1c[nH]cn1)C(=O)N[C@@H](Cc1c[nH]cn1)C(=O)N[C@@H](CC(N)=O)C(=O)N[C@H](C(=O)N[C@@H](Cc1c[nH]cn1)C(=O)N[C@@H](CC(C)C)C(=O)N[C@@H](CS)C(=O)N[C@@H](Cc1ccccc1)C(=O)N[C@H](C(=O)N[C@@H](Cc1c[nH]cn1)C(=O)N[C@H](C(=O)O)[C@@H](C)O)C(C)C)[C@@H](C)O [Peptide 39.0352]			5.90	5.10	7.04	5.83							pIC50 (DRB1*1302 (DR6w19)): 8.33
LFHYYFLSEKAPGSTV [Peptide 1136.04]							7.16	6	6.25	7.62	7.26	7.70	pIC50 (DRB1*0701 (DR7); Table V A) Non Predictions, read-out: Binding Capacity DR7): 5.48; additional DR types bound ([1]; "non-predictions" peptides, beyond DR1, 4w4 or 7): DR2w2 β2, DR4w15, 5w11 and 8w2; pIC50 (DRB1*0901 (DR9)): 5.54; pIC50 (DRB1*1501 (DR2w2b); [11]): 5.90
WLFPRFKFVWVTYASW [Peptide 1136.44.01]							5.40	2	5.18	6.28	5.20	6.11	
QEIDPLSYNYIPVNSN [Peptide 1136.55]	3	271											IC50 (DRB1*0701 (DR7)): 2450 nM; IC50 (DRB1*1101 (DR5w11); Table V B) Correct Predictions, read-out: Binding Capacity (IC50% nM) DR5w11): 4540 nM; IC50 (DRB1*1302 (DR6w19)): 5000 nM
LAAIIFLFGPPTALRS [Peptide 1136.28]	3	6670											IC50 (DRB1*0701 (DR7)): 3620 nM; IC50 (DRB5*0101 (DR2w2a); Table V B) Correct Predictions, read-out: Binding Capacity (IC50% nM) DR2w2a): 1480 nM; IC50 (DRB1*1201 (DR5w12); Table V B) Correct Predictions, read-out: Binding Capacity (IC50% nM) DR5w12): 4480 nM; IC50 (DRB1*1302 (DR6w19)): 3180 nM; IC50 (DRB1*0101 (DR1)): 0.23 nM; IC50 (DRB1*0802 (DR8w2); Table V B) Correct Predictions, read-out: Binding Capacity (IC50% nM) DR8w2): 7540 nM; IC50 (DRB1*0401 (DR4w4); Table V B) Correct Predictions, read-out: Binding Capacity (IC50% nM) DR4w4): 849 nM
YARFQRQTTLKAAA-NH2 [Peptide 717.10]													pIC50 (DRB1*0701 (DR7); read-out: DR7 nM (In IC50 Format), purified HLA DR7): 5.45; pIC50 (DRB4*0101 (DRw53)): 8.19; pIC50 (DRB1*1101 (DR5w11); read-out: DR5w11 nM (In IC50 Format), purified HLA DR5w11): 8.06; pIC50 (DRB5*0101 (DR2w2a); read-out: DR2w2B2 nM (In IC50 Format), purified HLA DR2w2β2): 7.25; pIC50 (DRB1*0101 (DR1); read-out: DR1 nM (In IC50 Format), purified HLA DR1): 8.54; pIC50 (DRB1*0401 (DR4w4); read-out: DR4w4 nM (In IC50 Format), purified HLA DR4w4): 8.25; pIC50 (DRB10404 (DR4w14)): 7.89
GPPTALRSFGFAFGYM [Peptide 1136.29]							5.20	7	6.13	7.49	5.53	5.36	pIC50 (DRB5*0101 (DR2w2a); Table V A) Non Predictions, read-out: Binding Capacity DR2w2a): 6.33; pIC50 (DRB1*1201 (DR5w12); Table V A) Non Predictions, read-out: Binding Capacity DR5w12): 6.00; pIC50 (DRB1*0901 (DR9)): 6.74; pIC50 (DRB1*1501 (DR2w2b); [11]): 8.96
ARLLDIDETEYHADG [Peptide 39.0366]			< 4.83	< 4.60	< 4.82	< 4.26							pIC50 (DRB5*0101 (DR2w2a); [4]): < 4.54; pIC50 (DRB1*1302 (DR6w19)): < 4.46; pIC50 (DRB1*0101 (DR1); [5]): 4.30
